Test results taken from patent US10165777B2, “Substituted pyrazolylpyrazole derivative and use of same as herbicide” (KYOYU AGRI CO., LTD., priority 2015, dated 2019).

Legend:
Type in all cases: in vivo
Scirpus juncoides = assay: Paddy herbicidal activity test; details: irrigated pot, 30 days
Method: (§1) 1. Paddy Herbicidal Activity Test Rice paddy soil was filled into a 1/10000 are pot followed by the addition of suitable amounts of water and chemical fertilizer, kneading, seeding with Echinochloa crus-galli, Monochoria vaginalis and Scirpus juncoides and maintaining in an irrigated state at a water depth of 3 cm. Wettable powders of Target Compound (I) shown in Table 1 prepared in compliance with the preparation examples were diluted with a suitable amount of water, rice plants in the 2.0 leaf stage were transplanted during 3.5 leaf stage of Echinochloa crus-galli, and treated by dropping in chemical in the prescribed amount per 10 are using a pipette. After treating for 30 days in a glass greenhouse at an average atmospheric temperature of 30° C., the herbicidal efficacy thereof was investigated. Evaluation of herbicidal efficacy was carried out by comparing growth inhibition rate (%) with an untreated group, while evaluation of phytotoxicity was carried out by comparing growth inhibition rate (%) with the state of a complete eradication group, and were evaluated at 11 levels indicated below.

Monochoria vaginalis = assay: Paddy herbicidal activity test; details: irrigated pot, 30 days
Method: as §1

Echinochloa crus-galli = assay: Paddy herbicidal activity test; details: irrigated pot, treated at 3.5 leaf stage of Echinochloa crus-galli, 30 days
Method: as §1

Chenopodium album [1] = assay: Farming soil treatment test; details: soil surface spray prior to weed growth, 30 days
Method: (§2) Field soil was filled into a 1/6000 are pot followed by seeding with Digitaria ciliaris, Chenopodium album and Amaranthus retroflexus and covering with soil. Wettable powders of compounds of formula (I) shown in Table 1 prepared in compliance with the preparation examples were diluted with water to the prescribed amount of chemical and uniformly sprayed onto each soil surface layer using 100 liters of sprayed water per 10 are prior to weed growth following seeding. After treating for 30 days in a glass greenhouse at an average atmospheric temperature of 30° C., the herbicidal efficacy thereof was investigated. Evaluation of herbicidal efficacy was carried out in the same manner as the above-mentioned Test Example 1.

Digitaria ciliaris [2] = assay: Farming soil treatment test; details: soil surface spray prior to weed growth, 30 days
Method: as §2

Amaranthus retroflexus [3] = assay: Farming soil treatment test; details: soil surface spray prior to weed growth, 30 days
Method: as §2

Oryza sativa = assay: Paddy herbicidal activity test, phytotoxicity to transplanted rice; details: rice transplanted in 2.0 leaf stage, 30 days
Method: as §1

Chenopodium album [4] = assay: Weed foliar treatment test (Test 3, 1.0 to 2.0 leaf stage); details: foliar spray at 1.0 to 2.0 leaf stage of Digitaria ciliaris, 3 weeks
Method: (§3) Soil was filled into a 1/6000 are pot followed by seeding with Digitaria ciliaris, Chenopodium album and Amaranthus retroflexus, covering with soil, and cultivating in a glass greenhouse at an average atmospheric temperature of 25° C. Wettable powders of Target Compound (I) shown in Table 1 prepared in compliance with the preparation examples were diluted with water to the prescribed amount of chemical and uniformly sprayed onto the weeds using 150 liters of sprayed water per 10 are when Digitaria ciliaris had grown to the 1.0 to 2.0 leaf stage. After treating for 3 weeks in a glass greenhouse at an average atmospheric temperature of 25° C., the herbicidal efficacy thereof was investigated. Evaluation of herbicidal efficacy was carried out in the same manner as the above-mentioned Test Example 1.

Digitaria ciliaris [5] = assay: as above; details: foliar spray at 1.0 to 2.0 leaf stage of Digitaria ciliaris, 3 weeks
Method: as §3

Amaranthus retroflexus [6] = assay: as above; details: foliar spray at 1.0 to 2.0 leaf stage of Digitaria ciliaris, 3 weeks
Method: as §3

Galinsoga parviflora = assay: Weed foliar treatment test (Test 4, 4.0 to 5.0 leaf stage); details: 10 g a.i./10 a; foliar spray at 4.0 to 5.0 leaf stage of Digitaria ciliaris; 20 days
Method: (§4) Field soil was filled into a 1/4500 are pot followed by seeding with Digitaria ciliaris and Galinsoga parviflora, covering with soil and cultivating in a glass greenhouse at an average atmospheric temperature of 25° C.
(§5) Wettable powders of Target Compound (I) shown in Table 1 prepared in compliance with the preparation examples were diluted with water to the prescribed amount of chemical and uniformly sprayed onto the weeds using 100 liters of sprayed water per 10 are when Digitaria ciliaris had grown to the 4.0 to 5.0 leaf stage (plant height: 10 cm to 15 cm).
(§6) After treating for 20 days in a glass greenhouse at an average atmospheric temperature of 25° C., the herbicidal efficacy thereof was investigated.
(§7) Evaluation of herbicidal efficacy was carried out in the same manner as the above-mentioned Test Example 1.

Digitaria ciliaris [7] = assay: as above; details: 10 g a.i./10 a; foliar spray at 4.0 to 5.0 leaf stage of Digitaria ciliaris (plant height 10 cm to 15 cm); 20 days
Method: as §4, §5, §6, §7

Structure (SMILES) | herbicidal efficacy, Scirpus juncoides (Scirpus juncoides; 1 g a.i./10 a) | herbicidal efficacy, Scirpus juncoides (Scirpus juncoides; 5 g a.i./10 a) | herbicidal efficacy, Monochoria vaginalis (Monochoria vaginalis; 1 g a.i./10 a) | herbicidal efficacy, Monochoria vaginalis (Monochoria vaginalis; 5 g a.i./10 a) | herbicidal efficacy, Echinochloa crus-galli (Echinochloa crus-galli; 1 g a.i./10 a) | herbicidal efficacy, Echinochloa crus-galli (Echinochloa crus-galli; 5 g a.i./10 a) | herbicidal efficacy, Chenopodium album (Chenopodium album [1]; 5 g a.i./10 a) | herbicidal efficacy, Chenopodium album (Chenopodium album [1]; 10 g a.i./10 a) | herbicidal efficacy, Digitaria ciliaris (Digitaria ciliaris [2]; 5 g a.i./10 a) | herbicidal efficacy, Digitaria ciliaris (Digitaria ciliaris [2]; 10 g a.i./10 a) | herbicidal efficacy, Amaranthus retroflexus (Amaranthus retroflexus [3]; 5 g a.i./10 a) | herbicidal efficacy, Amaranthus retroflexus (Amaranthus retroflexus [3]; 10 g a.i./10 a) | phytotoxicity, Oryza sativa (Oryza sativa; 1 g a.i./10 a) | phytotoxicity, Oryza sativa (Oryza sativa; 5 g a.i./10 a) | herbicidal efficacy, Chenopodium album (Chenopodium album [4]; 5 g a.i./10 a) | herbicidal efficacy, Chenopodium album (Chenopodium album [4]; 10 g a.i./10 a) | herbicidal efficacy, Digitaria ciliaris (Digitaria ciliaris [5]; 5 g a.i./10 a) | herbicidal efficacy, Digitaria ciliaris (Digitaria ciliaris [5]; 10 g a.i./10 a) | herbicidal efficacy, Amaranthus retroflexus (Amaranthus retroflexus [6]; 5 g a.i./10 a) | herbicidal efficacy, Amaranthus retroflexus (Amaranthus retroflexus [6]; 10 g a.i./10 a) | also measured
N#Cc1cnn(-c2nn3c(c2Cl)CCCC3)c1/C=C/c1ncccn1 [Compound 3.39, reference compound] | 0 (0% to less than 10% (growth inhibition rate)) | 0 (0% to less than 10% (growth inhibition rate)) | 2 (20% to less than 30%) | 3 (30% to less than 40%) | 1 (10% to less than 20%) | 2 (20% to less than 30%) | 4 (40% to less than 50%) | 4 (40% to less than 50%) | 3 (30% to less than 40%) | 4 (40% to less than 50%) | 2 (20% to less than 30%) | 3 (30% to less than 40%) | 0 (0% to less than 10% (growth inhibition rate)) | 1 (10% to less than 20%) | 4 (40% to less than 50%) | 5 (50% to less than 60%) | 2 (20% to less than 30%) | 3 (30% to less than 40%) | 1 (10% to less than 20%) | 2 (20% to less than 30%) | herbicidal efficacy, Galinsoga parviflora (Galinsoga parviflora): 3 (30% to less than 40%); herbicidal efficacy, Digitaria ciliaris (Digitaria ciliaris [7]): 2 (20% to less than 30%)
N#Cc1cnn(-c2nn3c(c2Cl)CCCC3)c1/C=C/c1ccccn1 [Compound 3.43, reference compound] | 0 (0% to less than 10% (growth inhibition rate)) | 1 (10% to less than 20%) | 3 (30% to less than 40%) | 3 (30% to less than 40%) | 2 (20% to less than 30%) | 3 (30% to less than 40%) | 2 (20% to less than 30%) | 3 (30% to less than 40%) | 1 (10% to less than 20%) | 3 (30% to less than 40%) | 2 (20% to less than 30%) | 2 (20% to less than 30%) | 1 (10% to less than 20%) | 2 (20% to less than 30%) | 3 (30% to less than 40%) | 4 (40% to less than 50%) | 1 (10% to less than 20%) | 3 (30% to less than 40%) | 0 (0% to less than 10% (growth inhibition rate)) | 2 (20% to less than 30%) | herbicidal efficacy, Galinsoga parviflora (Galinsoga parviflora): 3 (30% to less than 40%); herbicidal efficacy, Digitaria ciliaris (Digitaria ciliaris [7]): 1 (10% to less than 20%)
N#Cc1cnn(-c2nn3c(c2Br)CCCC3)c1/C=C/c1ccccn1 [Compound 3.44, reference compound] | 0 (0% to less than 10% (growth inhibition rate)) | 1 (10% to less than 20%) | 2 (20% to less than 30%) | 2 (20% to less than 30%) | 1 (10% to less than 20%) | 2 (20% to less than 30%) | 2 (20% to less than 30%) | 3 (30% to less than 40%) | 0 (0% to less than 10% (growth inhibition rate)) | 1 (10% to less than 20%) | 0 (0% to less than 10% (growth inhibition rate)) | 2 (20% to less than 30%) | 0 (0% to less than 10% (growth inhibition rate)) | 1 (10% to less than 20%) | 1 (10% to less than 20%) | 2 (20% to less than 30%) | 0 (0% to less than 10% (growth inhibition rate)) | 0 (0% to less than 10% (growth inhibition rate)) | 0 (0% to less than 10% (growth inhibition rate)) | 0 (0% to less than 10% (growth inhibition rate)) | herbicidal efficacy, Galinsoga parviflora (Galinsoga parviflora): 0 (0% to less than 10% (growth inhibition rate)); herbicidal efficacy, Digitaria ciliaris (Digitaria ciliaris [7]): 0 (0% to less than 10% (growth inhibition rate))
N#Cc1cnn(-c2nn3c(c2Cl)CCCC3)c1N=Cc1ccncc1 [Compound 23] | 10 (100%) | 10 (100%) | 10 (100%) | 10 (100%) | 10 (100%) | 10 (100%) | 10 (100%) | 10 (100%) | 9 (90% to less than 100%) | 10 (100%) | 9 (90% to less than 100%) | 10 (100%) | 0 (0% to less than 10% (growth inhibition rate)) | 1 (10% to less than 20%) | 10 (100%) | 10 (100%) | 9 (90% to less than 100%) | 10 (100%) | 9 (90% to less than 100%) | 10 (100%) | herbicidal efficacy, Galinsoga parviflora (Galinsoga parviflora): 10 (100%); herbicidal efficacy, Digitaria ciliaris (Digitaria ciliaris [7]): 9 (90% to less than 100%)
